Measured values from patent US20080139552A1, “INDOLES” (priority 2006, published 2008).

The molecules below were run against T1, human V1a receptor (Homo sapiens, UniProt P37288) (assay: human V1a receptor binding (3H-Vasopressin SPA, HEK293 cell membranes)). Conditions: membranes from HEK293 cells transiently transfected with human V1a receptor, Ki by Cheng-Prussoff, read-out: pki (hV1a) (converted).
T1 construct: expressed in transfected cells; host or cells: HEK293 cells, transiently transfected; cell membranes
T1 sequence (P37288 whole entry): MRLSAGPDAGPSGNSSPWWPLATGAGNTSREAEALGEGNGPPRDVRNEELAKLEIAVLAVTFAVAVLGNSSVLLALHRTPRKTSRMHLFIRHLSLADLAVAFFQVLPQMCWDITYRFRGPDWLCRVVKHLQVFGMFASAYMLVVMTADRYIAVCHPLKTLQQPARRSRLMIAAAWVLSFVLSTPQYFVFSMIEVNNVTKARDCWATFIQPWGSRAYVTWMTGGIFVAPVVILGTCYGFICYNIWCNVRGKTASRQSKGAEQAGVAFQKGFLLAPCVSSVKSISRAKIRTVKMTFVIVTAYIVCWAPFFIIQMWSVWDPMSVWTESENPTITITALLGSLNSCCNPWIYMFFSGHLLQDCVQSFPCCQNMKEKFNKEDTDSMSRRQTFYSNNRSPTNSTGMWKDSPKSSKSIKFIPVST
Protocol: The human V1a receptor was cloned by RT-PCR from total human liver RNA. The coding sequence was subcloned in an expression vector after sequencing to confirm the identity of the amplified sequence. […] Cell membranes were prepared from HEK293 cells transiently transfected with the expression vector and grown in 20 liter fermenters with the following protocol.
50 g of cells were resuspended in 30 ml freshly prepared ice cold Lysis buffer (50 mM HEPES, 1 mM EDTA, 10 mM MgCl2 adjusted to pH=7.4+complete cocktail of protease inhibitor (Roche Diagnostics)), homogenized with Polytron for 1 min, and sonicated on ice for 2×2 minutes at 80% intensity (Vibracell sonicator). The preparation was centrifuged 20 min at 500 g at 4° C., the pellet was discarded and the supernatant centrifuged 1 hour at 43,000 g at 4° C. (19,000 rpm). The pellet was resuspended in 12.5 ml Lysis buffer+12.5ml Sucrose 20% and homogenized using a Polytron for 1-2 min. The protein concentration was determined by the Bradford method and aliquots were stored at −80° C. until use. For binding studies 60 mg Yttrium silicate SPA beads (Amersham) were mixed with an aliquot of membrane in binding buffer (50 mM Tris, 120 mM NaCl, 5 mM KCl, 2 mM CaCl2, 10 mM MgCl2) for 15 minutes with mixing. 50 ul of bead/membrane mixture was then added to each well of a 96 well plate, followed by 50 ul of 4 nM 3H-Vasopressin (American Radiolabeled Chemicals). For total binding measurement 100 ul of binding buffer were added to the respective wells, for non-specific binding 100 ul of 8.4 mM cold vasopressin were added, and for compound testing 100 ul of a serial dilution of each compound in 2% DMSO were added. The plate was incubated 1 h at room temperature, centrifuged 1 min at 1000 g and counted on a Packard Top-Count. Non-specific binding counts were subtracted from each well and data was normalized to the maximum specific binding set at 100%. To calculate an IC 50 the curve was fitted using a non-linear regression model (XLfit) and the Ki was calculated using the Cheng-Prussoff equation.

| Ki | Structure (SMILES) |
| --- | --- |
| 19.5 nM | COc1cccc(OC)c1C1CCN(C(=O)c2cc3cc(Cl)cc(CC#N)c3[nH]2)CC1 [Example 9, {5-Chloro-2-[4-(2,6-dimethoxy-phenyl)-piperidine-1-carbonyl]-1H-indol-7-yl}-acetonitrile] |
| 86.1 nM | COc1cccc(OC)c1C1CCN(C(=O)c2cc3cccc(CC#N)c3[nH]2)CC1 [Example 8, {2-[4-(2,6-Dimethoxy-phenyl)-piperidine-1-carbonyl]-1H-indol-7-yl}-acetonitrile] |
| 40.7 nM | COc1cccc(OC)c1C1CCN(C(=O)c2cc3cc(Cl)ccc3[nH]2)CC1 [Example 5, (5-Chloro-1H-indol-2-yl)-[4-(2,6-dimethoxy-phenyl)-piperidin-1-yl]-methanone] |
| 12.9 nM | N#CCc1cc(Cl)cc2cc(C(=O)N3CCC(c4cccc5[nH]c(=O)oc45)CC3)[nH]c12 [Example 1, {5-Chloro-2-[4-(2-oxo-2,3-dihydro-benzooxazol-7-yl)-piperidine-1-carbonyl]-1H-indol-7-yl}-acetonitrile] |
| 6.53 nM | O=C(c1cc2cc(Cl)cc(CN3CCOCC3)c2[nH]1)N1CCC(c2cccc3[nH]c(=O)oc23)CC1 [Example 2, 7-[1-(5-Chloro-7-morpholin-4-ylmethyl-1H-indole-2-carbonyl)-piperidin-4-yl]-3H-benzooxazol-2-one] |
| 14 nM | COc1cccc(OC)c1C1CCN(C(=O)c2cc3cc(Cl)ccc3n2CC#N)CC1 [Example 7, {5-Chloro-2-[4-(2,6-dimethoxy-phenyl)-piperidine-1-carbonyl]-indol-1-yl}-acetonitrile] |
| 50.1 nM | COc1cccc(OC)c1C1CCN(C(=O)c2cc3cc(Cl)ccc3n2CC(=O)N(C)C)CC1 [Example 6, 2-{5-Chloro-2-[4-(2,6-dimethoxy-phenyl)-piperidine-1-carbonyl]-indol-1-yl}-N,N-dimethyl-acetamide] |
| 96.6 nM | Cc1c(C(=O)N2CC=C(c3ccccc3)CC2)[nH]c2c(C)cccc12 [Example 12, (3,7-Dimethyl-1H-indol-2-yl)-(4-phenyl-3,6-dihydro-2H-pyridin-1-yl)-methanone] |
| 54.3 nM | COc1ccccc1C1CCN(C(=O)c2cc3cc(Cl)cc(CN4CCOCC4)c3[nH]2)CC1 [Example 11, (5-Chloro-7-morpholin-4-ylmethyl-1H-indol-2-yl)-[4-(2-methoxy-phenyl)-piperidin-1-yl]-methanone] |
| 45.7 nM | COc1ccccc1C1CCN(C(=O)c2cc3cc(Cl)cc(CC#N)c3[nH]2)CC1 [Example 10, {5-Chloro-2-[4-(2-methoxy-phenyl)-piperidine-1-carbonyl]-1H-indol-7-yl}-acetonitrile] |
